Reference: patent US7858635B2 (priority 2005, dated 2010)
Like-named read-outs stand apart in the source and are kept apart here.

How the values were obtained:
M4 muscarinic receptor = target: T1, M4 muscarinic receptor (Homo sapiens, UniProt P08173); test: Functional mobilization of intracellular calcium (FLIPR, Fluo-3), M4-CHO cells; type: cell-based; conditions: for Emax: read-out: M4 Efficacy
T1 construct: expressed in transfected cells; host or cells: CHO cells (M4-CHO, under puromycin, zeocin and blasticidin selection)
T1 sequence (P08173 1-479): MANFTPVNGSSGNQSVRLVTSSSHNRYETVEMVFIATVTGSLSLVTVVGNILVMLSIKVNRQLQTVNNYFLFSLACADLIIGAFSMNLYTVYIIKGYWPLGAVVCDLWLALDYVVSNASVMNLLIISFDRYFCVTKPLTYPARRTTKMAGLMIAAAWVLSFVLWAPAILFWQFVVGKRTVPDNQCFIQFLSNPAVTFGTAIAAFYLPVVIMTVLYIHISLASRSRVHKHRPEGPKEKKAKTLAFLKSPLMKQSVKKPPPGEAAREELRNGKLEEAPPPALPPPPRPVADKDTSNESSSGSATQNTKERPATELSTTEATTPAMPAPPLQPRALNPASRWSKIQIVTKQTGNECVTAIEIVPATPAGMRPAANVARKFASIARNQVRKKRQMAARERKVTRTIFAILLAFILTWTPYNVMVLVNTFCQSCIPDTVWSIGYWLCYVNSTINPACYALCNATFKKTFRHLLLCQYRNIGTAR
Procedure, shortened: (§1)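 Fluo-3 read-out, ex 488/em 540 nm, 60 sec on FLIPR 3. For agonist mode, compound added directly; for inhibition, 15 min compound pre-incubation before carbachol at EC80 (added as a 3× solution), or co-application. Buffer pH 7.4 with 1 mM probenecid; DMSO 0.5%.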

M1 muscarinic receptor = target: T2, M1 muscarinic receptor (Homo sapiens, UniProt P11229); test: Functional mobilization of intracellular calcium (FLIPR, Fluo-3), M1-CHO cells; type: cell-based; conditions: for Emax: read-out: M1 Efficacy
T2 construct: expressed in transfected cells; host or cells: CHO cells (M1-CHO, under zeocin and G418 selection)
T2 sequence (P11229 1-460): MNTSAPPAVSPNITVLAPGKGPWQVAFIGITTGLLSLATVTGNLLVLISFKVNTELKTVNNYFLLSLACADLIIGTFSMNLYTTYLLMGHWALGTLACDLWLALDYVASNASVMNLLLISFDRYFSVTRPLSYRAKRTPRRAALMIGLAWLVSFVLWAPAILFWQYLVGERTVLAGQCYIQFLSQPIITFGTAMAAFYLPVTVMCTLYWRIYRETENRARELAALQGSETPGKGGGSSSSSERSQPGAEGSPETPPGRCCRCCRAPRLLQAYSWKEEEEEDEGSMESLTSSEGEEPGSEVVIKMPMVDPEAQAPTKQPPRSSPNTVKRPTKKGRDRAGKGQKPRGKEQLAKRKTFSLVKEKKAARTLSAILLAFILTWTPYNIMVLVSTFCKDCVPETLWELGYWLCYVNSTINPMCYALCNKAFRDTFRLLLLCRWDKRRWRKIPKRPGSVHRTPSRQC
Procedure, shortened: as §1

[1] = compound nos. 1-454, 100% efficacy is the maximum response obtained with the Carbachol control
[2] = compound nos. 1-454, M4-CHO cells, calcium mobilization
[3] = compound nos. 1-454, M1-CHO cells, calcium mobilization
[4] = compound nos. 455-509, 100% efficacy is the maximum response obtained with the Carbachol control

## CCOC(=O)N1CCC(N2CCC3(CC2)CN(C(C)=O)c2ccc(-c4ccccc4OC)cc23)CC1 [compound 150]
M4 muscarinic receptor; [1]
  Emax: > 70%
M4 muscarinic receptor; [2]
  M4 Activity: + (activity was measured to be greater than or equal to 4.0 μM)
M1 muscarinic receptor; [1]
  Emax: 65 to 85%
M1 muscarinic receptor; [3]
  M1 Activity: +++ (activity was measured to be less than or equal to 0.7 μM)

## CCOC(=O)N1C2CCC1CC(N1CCC3(CC1)CN(C(C)=O)c1ccc(C)cc13)C2 (stereo not drawn) [compound 9]
M4 muscarinic receptor; [1]
  Emax: 55 to 70%
M4 muscarinic receptor; [2]
  M4 Activity: + (activity was measured to be greater than or equal to 4.0 μM)
M1 muscarinic receptor; [1]
  Emax: 65 to 85%
M1 muscarinic receptor; [3]
  M1 Activity: +++ (activity was measured to be less than or equal to 0.7 μM)

## COCCOC(=O)N1C2CCC1CC(N1CCC3(CC1)CN(C(=O)OC1CCC1)c1ccc(F)cc13)C2 (stereo not drawn) [compound 106]
M4 muscarinic receptor; [1]
  Emax: < 55%
M4 muscarinic receptor; [2]
  M4 Activity: ++ (activity was measured to be between 0.1 μM and 4.0 μM)
M1 muscarinic receptor; [1]
  Emax: 65 to 85%
M1 muscarinic receptor; [3]
  M1 Activity: +++ (activity was measured to be less than or equal to 0.7 μM)

## CN(C)C(=O)N1CC2(CCN(C3CCN(c4ccccn4)CC3)CC2)c2cc(F)ccc21 [compound 452]
M4 muscarinic receptor; compound nos. 1-454
  M4 Activity: +++ (activity was measured to be less than or equal to 0.1 μM)
M4 muscarinic receptor; [1]
  Emax: 55 to 70%
M1 muscarinic receptor; compound nos. 1-454
  M1 Activity: ++ (activity was measured to be between 0.7 μM and 3.0 μM)
M1 muscarinic receptor; [1]
  Emax: 65 to 85%

## Clc1ccc2c(c1)C1(CCN(C3CCOCC3)CC1)CN2 [compound 37]
M4 muscarinic receptor; [1]
  Emax: > 70%
M4 muscarinic receptor; [2]
  M4 Activity: ++ (activity was measured to be between 0.1 μM and 4.0 μM)
M1 muscarinic receptor; [1]
  Emax: 65 to 85%
M1 muscarinic receptor; [3]
  M1 Activity: +++ (activity was measured to be less than or equal to 0.7 μM)

## CCCOC(=O)N1C2CCC1CC(N1CCC3(CC1)CN(C(=O)O[C@@H]1CCOC1)c1ccc(F)cc13)C2 (stereo partly drawn) [compound 115]
M4 muscarinic receptor; [1]
  Emax: < 55%
M4 muscarinic receptor; [2]
  M4 Activity: ++ (activity was measured to be between 0.1 μM and 4.0 μM)
M1 muscarinic receptor; [1]
  Emax: 65 to 85%
M1 muscarinic receptor; [3]
  M1 Activity: +++ (activity was measured to be less than or equal to 0.7 μM)

## COC(=O)N1CCC(N2CCC3(CC2)CN(C(C)=O)c2ccc(F)cc23)CC1 [compound 374]
M4 muscarinic receptor; [1]
  Emax: 55 to 70%
M4 muscarinic receptor; [2]
  M4 Activity: + (activity was measured to be greater than or equal to 4.0 μM)
M1 muscarinic receptor; [1]
  Emax: 65 to 85%
M1 muscarinic receptor; [3]
  M1 Activity: ++ (activity was measured to be between 0.7 μM and 3.0 μM)

## O=C(O[C@@H]1CCOC1)N1C2CCC1CC(N1CCC3(CC1)C(=O)Nc1ccccc13)C2 (stereo partly drawn) [compound 336]
M4 muscarinic receptor; [1]
  Emax: < 55%
M4 muscarinic receptor; [2]
  M4 Activity: + (activity was measured to be greater than or equal to 4.0 μM)
M1 muscarinic receptor; [1]
  Emax: < 65%
M1 muscarinic receptor; [3]
  M1 Activity: + (activity was measured to be greater than or equal to 3.0 μM)

## CCOC(=O)N1C2CCC1CC(N1CCC3(CC1)CN(C(=O)OC)c1ccc(F)cc13)C2 (stereo not drawn) [compound 167]
M4 muscarinic receptor; [1]
  Emax: > 70%
M4 muscarinic receptor; [2]
  M4 Activity: ++ (activity was measured to be between 0.1 μM and 4.0 μM)
M1 muscarinic receptor; [1]
  Emax: 65 to 85%
M1 muscarinic receptor; [3]
  M1 Activity: +++ (activity was measured to be less than or equal to 0.7 μM)

## COCCOC(=O)N1C2CCC1CC(N1CCC3(CC1)C(=O)Nc1ccccc13)C2 (stereo not drawn) [compound 71]
M4 muscarinic receptor; [1]
  Emax: < 55%
M4 muscarinic receptor; [2]
  M4 Activity: ++ (activity was measured to be between 0.1 μM and 4.0 μM)
M1 muscarinic receptor; [1]
  Emax: < 65%
M1 muscarinic receptor; [3]
  M1 Activity: +++ (activity was measured to be less than or equal to 0.7 μM)

## CC(=O)N1CC2(CCN(CC3CCN(C(=O)O[C@@H]4CCOC4)CC3)CC2)c2cc(F)ccc21 [compound 82]
M4 muscarinic receptor; [1]
  M4 Efficacy: ++ (efficacy was calculated to be between 70% and 55%)
M4 muscarinic receptor; [2]
  M4 Activity: ++ (activity was measured to be between 0.1 μM and 4.0 μM)
M1 muscarinic receptor; [1]
  M1 Efficacy: ++ (efficacy was calculated to be between 85% and 65%)
M1 muscarinic receptor; [3]
  M1 Activity: +++ (activity was measured to be less than or equal to 0.7 μM)

## CN(C)C(=O)N1CC2(CCN(C3CCN(c4ncnc5ccsc45)CC3)CC2)c2cc(F)ccc21 [compound 496]
M4 muscarinic receptor; [4]
  Emax: 25 to 100%
M4 muscarinic receptor; compounds 455-509
  M4 Activity: ++ (activity was measured to be between 2.0 μM and 5.0 μM)
M1 muscarinic receptor; [4]
  Emax: > 100%
M1 muscarinic receptor; compounds 455-509
  M1 Activity: + (activity was measured to be greater than or equal to 5.0 μM)
